Where “and” joins values, the source holds several entries; their conditions need not be identical. Identical values can stand only once.
How the values were obtained:
[1] = test system: SA1N fibrosarcoma; assay: Antitumor activity in the SA1N fibrosarcoma tumor model; type: in vivo, mouse; details: for % TGI: IP every 4 days x3; for CR/Total # mice: complete regressions; for T-C: target size 500 mm^3
Experimental: (§1) Tumor cell lines were maintained in vitro. Treatments were initiated when the subcutaneous tumors reached a median size between 100-200 mm^3 (established model) or prior to detection (initiation model). Tumors were measured twice weekly and tumor size (mm^3) was calculated as (length×width^2)/2. Body weights were obtained weekly. The tumor models used in these studies are outlined in Table 1.
(§2) The dose levels, routes and dosing schedules are indicated for each particular study described below. Antibodies and chemotherapeutic agents were administered intraperitoneally (i.p.). Each treatment regimen consisted of a cohort of eight to ten mice. Anti-tumor activity, defined as percentage tumor growth inhibition, was calculated as follows:
% Tumor Growth Inhibition=100−[(Tt/To)/(Ct/Co)]/100−(Ct/Co)
(§3) In addition, another parameter used to define efficacy was to determine time to tumor progression to target size (T−C), where the time (days) for the median tumor size of control (C) mice to reach target size was subtracted to the time for median tumor size of treated (T) mice to reach target size.
SA1N fibrosarcoma is an inherently immunogenic tumor line which is sensitive to the effects of CTLA-4 blockade. Two studies were conducted to determine the effect of CTLA-4 blockade in combination with ixabepilone or paclitaxel in this tumor model (see Table 1). Animals were implanted with SA1N cells subcutaneously and treatments were initiated when tumors reached 100-150 mm^3. Experimental groups consisted of cohorts of 8 mice. Ixabepilone, paclitaxel and CTLA-4 mab were administered intraperitoneally (IP) every 4 days for 3 doses. In the combination groups, CTLA-4 mab was administered one day after each chemotherapy treatment.

[2] = test system: EMT-6 mammary carcinoma; assay: Antitumor activity in the EMT-6 mammary tumor model; type: in vivo, mouse; details: for % Tumor-free Mice / T-C: Study 27; for T-C: treatment from day 3/4, every 4 days x3 IP, ixabepilone 8, paclitaxel 24, CTLA-4 mAb 20 mg/kg
Experimental: as §1
as §2, with “follows: […]” for “follows:”
as §3

[3] = test system: M109 lung carcinoma; assay: Antitumor activity in the M109 lung carcinoma tumor model; type: in vivo, mouse; details: for % Tumor-Free Mice after Initial Tumor Implantation: Study 40, footnote: percentage of animals that develop tumors following implantation on Day 0
Experimental: as §1
as §2, with “follows: […]” for “follows:”
The antitumor effects of CTLA-4 mAb and microtubule-stabilizing agents were also studied in the M109 lung carcinoma model, a tumor line which is not sensitive to the effect of CTLA-4 blockade. In these studies treatments with chemotherapeutic agents were initiated when tumors were palpable, on day 3 after tumor implantation. This regimen was selected to produce a measurable antitumor effect, which was not observed when treatments were initiated at a later time. As in the studies conducted in the SA1N and EMT-6 tumor lines, CTLA-4 mAb was dosed one day after treatment with chemotherapy.

[4] = test system: CT26 colon carcinoma; assay: Antitumor activity in the CT26 colon tumor model; type: in vivo, mouse; details: for % Complete Regressions/Total # mice: IP every 4 days x3, ixabepilone 8, paclitaxel 24, CTLA-4 mAb 20 mg/kg; for antitumor effect in words: text and FIG. 2
Experimental: as §1
as §2, with “follows: […]” for “follows:”
Next, the antitumor effects of CTLA-4 mAb and nmicrotubule-stabilizing agents were studied in a model not sensitive to ixabepilone or paclitaxel, the CT26 colon carcinoma model.

[5] = test system: A2780, HCT116, LS174T, HCT116/VM46, Pat-7, A2780Tax, Pat-21 tumor models; assay: Preclinical pharmacology studies of Compound 1 in tumor models; type: in vivo
[6] = test system: M109 lung carcinoma; assay: M109 tumor rechallenge of tumor-free mice; type: in vivo, mouse
Text: To determine whether the combination of CTLA-4+ixabepilone produced a memory immune response able to reject a secondary tumor challenge, animals free of tumors by day 97 were re-challenge with a lethal M109 cell inoculum.

[7] = test system: SA1N fibrosarcoma, M109 lung carcinoma, EMT-6 mammary carcinoma, CT-26 colon carcinoma and B16 melanoma; assay: Efficacy studies across murine tumor lines (summary); type: in vivo, mouse; details: animals with complete regressions rechallenged with lethal dose of tumor cells
Experimental: Efficacy studies were conducted in 3 different tumor lines implanted in immunocompetent mice: SAlN fibrosarcoma, MI09 lung carcinoma and EMT-6 mammary carcinoma. […] For the combination group, anti-CTLA-4 mAb was administered one day after each ixabepilone treatment. In selected studies, animals with complete tumor regressions were rechallenged with a lethal dose of tumor cells to determine the level of immune protection. In other studies, the combined efficacy of CTLA-4 mAb+ixabepilone was compared directly with CTLA-4 InAb+paclitaxel.
The effect of an anti-mouse CTLA-4 blocking antibody, the murine homolog of ipilimumab, was evaluated in multiple murine tumor models in combination with the microtubule-stabilizing agents paclitaxel (TAXOL®), and ixabepilone (IXEMPRA®). Efficacy studies were conducted in 5 different tumor lines: SA1N fibrosarcoma, M109 lung carcinoma, EMT-6 mammary carcinoma, CT-26 colon carcinoma and B16 melanoma. Ixabepilone, paclitaxel and CTLA-4 mAb were administered at their optimal dose and schedule: ixabepilone, 8 mg/kg; paclitaxel, 24 mg/kg, CTLA-4 mAb, 20 mg/kg every 4 days for 3 doses. For the combination group, anti-CTLA-4 mAb was administered one day after each ixabepilone or paclitaxel treatment. In selected studies, animals with complete tumor regressions were rechallenged with a lethal dose of tumor cells to determine the level of immune protection.

[8] = Study 17, calculated Day 33, ixabepilone 8, paclitaxel 24, CTLA-4 mAb 20 mg/kg
[9] = Study 17, study terminated day 116

5beta,20-Epoxy-1,2alpha,4,7beta, 10beta, 13alpha-hexahydroxytax-11-en-9-one 4,10-diacetate 2-benzoate 13-ester with (2R,3S)—N-benzoyl-3-phenylisoserine [Paclitaxel]
% TGI ([1]; Study 11, calculated Day 34, paclitaxel 24, CTLA-4 mAb 20 mg/kg): 88%
CR/Total # mice ([1]; Study 11): 3/8
T-C ([1]; Study 11, study terminated day 52): 13 days
% TGI [1, 8]: 0%
CR/Total # mice ([1]; Study 17): 0/8
T-C [1, 9]: 0 days
antitumor effect in words ([1]; both SA1N studies): variable effect
antitumor effect in words [2]: ineffective
% Tumor-free Mice [2]: 0%
T-C [2]: 0 days
antitumor effect in words ([3]; FIG. 1): did not produce antitumor effects
% Tumor-Free Mice after Initial Tumor Implantation [3]: 100%
% Complete Regressions/Total # mice [4]: 0/10
antitumor effect in words [4]: neither paclitaxel or ixabepilone produced any measurable antitumor activity

C/C(=C\c1csc(C)n1)[C@@H]1C[C@@H]2O[C@]2(C)CCC[C@H](C)[C@H](O)[C@@H](C)C(=O)C(C)(C)[C@@H](O)CC(=O)N1 (relative stereo) [Compound 1, [1S-[1R*,3R*(E),7R*,10S*,11R*,12R*,16S*]]-7,11-dihydroxy-8,8,10,12,16-pentamethyl-3-[1-methyl-2-(2-methyl-4-thiazolyl)ethenyl]-4-aza-17-oxabicyclo[14.1.0]heptadecane-5,9-dione]
oral efficacy in words ([5]; oral vs parenteral administration): orally efficacious
antitumor activity in words ([5]; paclitaxel-sensitive and paclitaxel-resistant human tumor models): very impressive and broad spectrum of antitumor activity

C/C(=C\c1csc(C)n1)[C@@H]1C[C@@H]2O[C@]2(C)CCC[C@H](C)[C@H](O)[C@@H](C)C(=O)C(C)(C)[C@@H](O)CC(=O)N1 [Ixabepilone, (1S,3S,7S,10R,11S,12S,16R)-7,11-dihydroxy-8,8,10,12,16-pentamethyl-3-[(1E)-1-methyl-2-(2-methyl-4-thiazolyl)ethenyl]-17-oxa-4-azabicyclo[14.1.0]heptadecane-5,9-dione]
CR/Total # mice, percentage in parentheses (% CR) ([1]; Study 9): (37.5) %
% TGI ([1]; Study 9, calculated Day 36, ixabepilone 8 mg/kg, CTLA-4 mAb 20 mg/kg): 92%
CR/Total # mice ([1]; Study 9): 3 out of 8 and 3/8
T-C ([1]; Study 9, study terminated day 39): 11 days
CR/Total # mice, percentage in parentheses (% CR) ([1]; Study 17): (0) %
% TGI [1, 8]: 83%
CR/Total # mice ([1]; Study 17): 0/8
T-C [1, 9]: 7 days
% Tumor-free Mice [2]: 20%
T-C [2]: 19 days
treated animals in which tumor growth was inhibited [3]: 50%
% Tumor-Free Mice after Initial Tumor Implantation [3]: 50%
% mice developing tumors after rechallenge ([6]; Study 40, footnote: percentage of mice that develop tumors after tumor rechallenge on Day 95): 75%
mice that developed tumors after rechallenge, percent ([6]; tumor-free mice re-challenged with lethal M109 inoculum): 80%
mice that developed tumors after rechallenge ([6]; tumor-free mice re-challenged with lethal M109 inoculum, count): 4 out of 5
% Complete Regressions/Total # mice [4]: 0/10
antitumor effect in words [4]: neither paclitaxel or ixabepilone produced any measurable antitumor activity
protection against tumor rechallenge in words [7]: only partial protection

From patent US20140323533A1, “COMBINATION OF ANTI-CTLA4 ANTIBODY WITH TUBULIN MODULATING AGENTS FOR THE TREATMENT OF PROLIFERATIVE DISEASES” (BRISTOL-MYERS SQUIBB COMPANY, priority 2013, published 2014)
